Measured values published in article PMC8287724, “Reducing Auditory Nerve Excitability by Acute Antagonism of Ca^2+-Permeable AMPA Receptors” (Frontiers in Synaptic Neuroscience, 2021).

Tested on: auditory nerve compound action potential (CAP)
Test: Auditory nerve CAP after systemic (intraperitoneal) delivery
Assay type: in vivo, guinea pig
Conditions: for effect on CAP thresholds: 1 to 22 kHz; for CAP amplitude reduction, on average: after ~1 h, 8 kHz tone bursts at 90 dB SPL
Description: This study utilized 21 NIH-strain, pigmented guinea pigs weighing from 400 to 650 g, in accordance with policies and protocols approved by the Institutional Animal Care and Use Committee at Washington University in St. Louis (20180133, 20190035). Animals were anesthetized with intraperitoneal (IP) injection of 100 mg/kg sodium thiobutabarbital (Inactin, Sigma, St. Louis, MO). Once anesthetized, the fur from the head and neck was shaved and a tracheal cannula was placed. The animal was maintained on 0.8–1.2% isoflurane in oxygen using a mechanical ventilator. The ventilator's tidal volume was adjusted to maintain a 5% end-tidal CO2 which was monitored with a CapnoTrue AMP (Bluepoint Medical, Zevenaar, The Netherlands). Body temperature was maintained at 38 degrees C with a DC-powered heating blanket-rectal thermometer (Model 50-7079; Harvard Apparatus). Heart rate and oxygen saturation were monitored with a pulse oximeter (Surgivet, Waukesha, WI). The auditory bulla was exposed ventrally for placement of recording electrodes. The jugular vein was cannulated to maintain hydration with 0.5 mL per hour of Lactated Ringer's solution. To prevent middle ear muscle contractions, vecuronium bromide (0.2 mg/kg) was administered immediately prior to data collection and every 1.5 h thereafter.
As described for local delivery, cochlear output was measured similarly for systemic delivery of IEM-1460 and IEM-1925. Complete details have been previously published (Salt et al., [2013]). Briefly, acoustic tone bursts were applied in a closed sound system. The plastic extension tube of the acoustic assembly (Etymotic Research, ER-10 C) was coupled to the end of the hollow ear bar with the tube tip positioned ~1.5 mm from the tympanic membrane. Stimulus generation and data collection were performed with Tucker Davis System 3 hardware controlled by a custom written program (Microsoft Visual Basic). Stimulus waveforms were routed through a programmable Tucker Davis PA5 attenuator and HB7 headphone amplifier. Stimuli were calibrated from 0.125 to 26 kHz in 1/4 octave steps. A CAP audiogram was obtained at the beginning and end of the experiment. Up to 60 min of baseline audiometric data were obtained prior to drug delivery. Data with baseline changes >20% were excluded. A 13-level tone probe series, at selected frequencies, was repeated at 2-min intervals. Distortion product otoacoustic emissions (DPOAEs) were measured using an ER10C probe system. The two primary tone frequencies were set at 6 kHz (f1) and 7.4 kHz (f2), for a f2/f1-ratio of 1.23, with levels of 65 dB SPL (L1) and 55 dB SPL (L2).
At each probe frequency, CAP peak-to-peak amplitudes were measured from the first trough (N1) to the first peak (P1). Latencies were measured to the trough of N1. Cochlear output was compared before and after intraperitoneal drug delivery. The data were tested for normality using a Kolmogorov-Smirnov test. For CAP amplitude and latency, significance was assessed with the Mann-Whitney U-test. The Wilcoxon signed rank test was used to assess CAP threshold. Friedman test was used to compare concentrations of drug between perilymph and CSF. A p < 0.05 was considered statistically significant. A Bonferroni correction was used when performing multiple comparison testing. All statistical tests were performed with IBM SPSS Statistics Version 27 (SPSS Inc., Chicago, IL, United States).
After at least 30 min of baseline data, 1 mL of Lactated Ringer's was injected into the peritoneal space of the guinea pig as a vehicle control. Then, 13.5 mg/kg IEM-1460 or 8 mg/kg IEM-1925 in Lactated Ringer's was injected into the peritoneal space of the guinea pig. The entire experiment took ~3 h to complete: 1 h for anesthetic induction and surgery, 30 min for sound calibration and CAP threshold measurements, and 2 h for drug delivery, DPOAE and CAP measurements. After collection of perilymph and CSF, the animal was euthanized via saturated KCl delivered directly into the jugular vein. […]

[1] = IP injection: IEM-1460 13.5 mg/kg, IEM-1925 8 mg/kg
[2] = IP injection: IEM-1460 13.5 mg/kg, IEM-1925 8 mg/kg, N = 4

Compound | effect on CAP latency (IP 13.5 mg/kg, all tone levels, N = 4) | mean difference between pre- and post-injection CAP amplitudes (IP 13.5 mg/kg, exemplary recording, across tone levels) | relative reduction of CAP amplitude (IP 13.5 mg/kg, exemplary recording, probes of 40–90 dB SPL) | delay from IP injection to start of CAP reduction [1] | effect on CAP thresholds [2] | CAP amplitude reduction, on average [2] | CAP reduction from baseline [1]
C[N+](C)(C)CCCCCNCC12CC3CC(CC(C3)C1)C2 [IEM-1460] | no statistically significant difference | 19.1–269 μV | ~ 50% | 20 to 50 min | not statistically different | ~ 20% | 
NCCCCCNC1(c2ccccc2)CCCCC1 [IEM-1925] |  |  |  |  | minimal effect | ~ 20% | > 50%
